Experiments:
[1] = test system: paclitaxel-induced peripheral nerve disorder rats; assay: Oral administration (suspension or α-CD inclusion complex), hyperalgesia by paclitaxel (von Frey test); type: in vivo, rat; conditions: for 50% reaction threshold value, after 5 hours from administration / AUC of 50% reaction threshold value over time, measured value: single dose; for 50% reaction threshold value, before administration: baseline
Procedure: A suspension ([…]) 5 mL of the compound 4 was mixed with a 1% α-CD aqueous solution followed by stirring overnight to prepare an α-CD inclusion complex of the compound 4.
With regard to male SD rats of six weeks age used as the experimental animals, the rats were organized into the following six groups each comprising 6 rats. • Oral administration group with 0.3 mg/kg of the test drug suspension • Oral administration group with 3 mg/kg of the test drug suspension • Oral administration group with an α-CD inclusion complex containing 0.3 mg/kg of the test drug • Oral administration group with an α-CD inclusion complex containing 3 mg/kg of the test drug • α-CD oral administration group • Intraperitoneal administration group with 0.3 mg/kg of the test drug
Paclitaxel-induced peripheral nerve disorder rats were prepared in the same manner as in the above 1.[1](2). The compound 4 was used as a test drug and, after 39 days from the initiation of the administration of paclitaxel, it was orally administered in a single dose where the dose calculated as a test drug became 0.3 mg/kg or 3 mg/kg to oral administration groups with the test drug suspension or to oral administration groups with an α-CD inclusion complex containing the test drug while, to an intraperitoneal administration group with the test drug, it was intraperitoneally administered in a single dose of 0.3 mg/kg. Further, to an α-CD Oral administration group, an α-CD solution was orally administered in a single dose of 15 mg/kg.
A von Frey test was conducted in the same manner as in the above 1.[1](4) using the rats mentioned in the above (2) and 50% reaction threshold values in each group were measured before initiating the administration of a test drug and after 1, 5 and 24 hours. Further, AUC (area of the part surrounded by a curve and an abscissa axis (a time axis) in a graph showing the 50% reaction threshold value over time from administration of the test drug) was calculated and the relative ratio of each group was calculated where the AUC of the intraperitoneal administration group with 0.3 mg/kg of the test drug was adopted as 100.

[2] = test system: oxaliplatin-induced peripheral nerve disorder rats; assay: Repeated intraperitoneal administration, hyperalgesia by oxaliplatin (von Frey test); type: in vivo, rat
Procedure: With regard to male SD rats of six weeks age used as the experimental animals, their 50% reaction threshold values to mechanical stimulus and body weights were measured and then the following seven groups each comprising 8 rats was organized. • Normal control group • Onset control group • Prophylactic administration group with 0.25 mg/kg/day of a test drug • Prophylactic administration group with 0.50 mg/kg/day of a test drug • Therapeutic administration group with 0.25 mg/kg/day of a test drug • Therapeutic administration group with 0.50 mg/kg/day of a test drug • Therapeutic administration group with 10 mg/kg/day of pregabalin (positive control)
To the rats of each of the above groups except the normal control group was intraperitoneally administered an oxaliplatin solution dissolved in glucose injection to an extent of 4 mg/mL in a dose of 4 mg/kg twice weekly for four weeks being eight times in total whereupon the oxaliplatin-induced peripheral nerve disorder rats were prepared. To the normal control group, glucose injection was administered similarly.
To prophylactic administration groups of a test drug, a test drug (the compound 4) in a dose of 0.25 mg/kg/day or 0.50 mg/kg/day was repeatedly administered intraperitoneally since immediately after initiation of administration of oxaliplatin until 27 days thereafter. Meanwhile, to a therapeutic administration group of a test drug and to a therapeutic administration group of pregabalin, a test drug (the compound 4) in a dose of 0.25 mg/kg/day or 0.50 mg/kg/day was repeatedly administered intraperitoneally during the period of from 14 days to 27 days after initiation of the administration of oxaliplatin and, pregabalin was administered orally in repeated dose of 10 mg/kg/day during the same period.
A von Frey test was conducted in the same manner as in the above 1.[1](4) using the seven groups of rats mentioned in the above (1). 50% reaction threshold values in each group were measured before initiating the administration of oxaliplatin and after 7, 14, 21, 28, 33 and 40 days from the initiation of the administration. Mean value ± standard error for each group was calculated and the test for significant difference was conducted in the same manner as in the above 1.[1](4).

[3] = oral 0.3 mg/kg, test drug suspension
[4] = oral 3 mg/kg, test drug suspension

Compound: CCCCCCC/C=C/C(=O)OCC [Compound 4, Trans-2-decenoic acid ethyl ester]
- 50% reaction threshold value, after 5 hours from administration ([1]; intraperitoneal 0.3 mg/kg): 8.57
- AUC of 50% reaction threshold value over time, measured value ([1]; intraperitoneal 0.3 mg/kg): 74.59
- 50% reaction threshold value, before administration ([1]; intraperitoneal 0.3 mg/kg): 4.58
- AUC relative ratio ([1]; intraperitoneal 0.3 mg/kg, this group adopted as 100): 100
- 50% reaction threshold value, after 5 hours from administration [1, 3]: 6.00
- AUC of 50% reaction threshold value over time, measured value [1, 3]: 31.83
- AUC relative ratio ([1]; oral 0.3 mg/kg, test drug suspension, AUC of i.p. 0.3 mg/kg group = 100): 43
- 50% reaction threshold value, before administration [1, 3]: 4.57
- 50% reaction threshold value, after 5 hours from administration [1, 4]: 8.66
- AUC of 50% reaction threshold value over time, measured value [1, 4]: 54.99
- AUC relative ratio ([1]; oral 3 mg/kg, test drug suspension, AUC of i.p. 0.3 mg/kg group = 100): 74
- 50% reaction threshold value, before administration [1, 4]: 4.57
- effect of suppressing the hyperalgesia after completion of the repeated administration ([2]; oxaliplatin model, repeated i.p. 0.25 or 0.50 mg/kg/day): still continued
- 50% reaction threshold values to the mechanical stimulus vs onset control group ([2]; prophylactic i.p. 0.25 mg/kg/day until 27 days, from 21 days to 28 days after oxaliplatin): significantly high
- 50% reaction threshold values to the mechanical stimulus vs onset control group ([2]; prophylactic i.p. 0.5 mg/kg/day until 27 days, from 21 days to 33 days after oxaliplatin): significantly high
- 50% reaction threshold values to the mechanical stimulus vs onset control group ([2]; therapeutic i.p. 0.25 mg/kg/day (days 14-27), after 28 days from oxaliplatin): significantly high
- 50% reaction threshold values to the mechanical stimulus vs onset control group ([2]; therapeutic i.p. 0.5 mg/kg/day (days 14-27), from 21 days to 33 days after oxaliplatin): significantly high

— patent US20130296425A1, “PROPHYLACTIC OR THERAPEUTIC AGENT FOR A PERIPHERAL NERVE DISORDER INDUCED BY ANTI-CANCER AGENTS” (NAGOYA INDUSTRIAL SCIENCE RESEARCH INSTITUTE, priority 2011, published 2013)
